According to patent publication US9776972B2, “Pyrazole derivatives as arginine methyltransferase inhibitors and uses thereof” (priority 2013, dated 2017):
Where a name gives a salt, the structure may show the parent alone. Read-outs that look alike come from different tables or passages of the source.

Experiments:
human PRMT6 = target: T1, human PRMT6 (Homo sapiens, UniProt Q96LA8); experiment: PRMT6 Biochemical Assay (3H-SAM Flashplate, peptide substrate)
T1 construct: Flag-PRMT6-His; made in house; host or cells: HEK 293F cells (BacMam baculovirus)
Summary of the method: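 Flag-PRMT6-His, expressed in mammalian cells from a BacMam vector, was preincubated with compound for 30 min at room temperature in Bicine pH 7.6 buffer with TCEP, BSG and Tween 20. Reactions were started with ³H-SAM and a biotinylated histone H4 36-50 peptide, then stopped with cold SAM (400 uM final). Labeled peptide was captured on streptavidin Flashplates, counted, and fitted to a 3- or 4-parameter curve.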

human PRMT1 = target: T2, human PRMT1 (Homo sapiens, UniProt Q99873); experiment: PRMT1 Biochemical Assay (3H-SAM Flashplate, peptide substrate); conditions: single experiment or average of multiple experiments
T2 construct: GST-tagged PRMT1; made in house; host or cells: High Five insect cells (baculovirus)
Summary of the method: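 GST-tagged PRMT1 from baculovirus-infected cells, preincubated with compounds 30 min at room temperature in 20 mM Bicine pH 7.6, 1 mM TCEP, 0.005% BSG, 0.002% Tween 20. Reaction started with ³H-SAM plus biotinylated peptide, stopped with 300 µM cold SAM.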

[1] = Biochemical IC50 PRMT6, single experiment or average of multiple experiments
[2] = single experiment or average of multiple experiments, read-out: Biochemical IC50 PRMT6

T2 sequence (Q99873 with tags, fused parts or gaps): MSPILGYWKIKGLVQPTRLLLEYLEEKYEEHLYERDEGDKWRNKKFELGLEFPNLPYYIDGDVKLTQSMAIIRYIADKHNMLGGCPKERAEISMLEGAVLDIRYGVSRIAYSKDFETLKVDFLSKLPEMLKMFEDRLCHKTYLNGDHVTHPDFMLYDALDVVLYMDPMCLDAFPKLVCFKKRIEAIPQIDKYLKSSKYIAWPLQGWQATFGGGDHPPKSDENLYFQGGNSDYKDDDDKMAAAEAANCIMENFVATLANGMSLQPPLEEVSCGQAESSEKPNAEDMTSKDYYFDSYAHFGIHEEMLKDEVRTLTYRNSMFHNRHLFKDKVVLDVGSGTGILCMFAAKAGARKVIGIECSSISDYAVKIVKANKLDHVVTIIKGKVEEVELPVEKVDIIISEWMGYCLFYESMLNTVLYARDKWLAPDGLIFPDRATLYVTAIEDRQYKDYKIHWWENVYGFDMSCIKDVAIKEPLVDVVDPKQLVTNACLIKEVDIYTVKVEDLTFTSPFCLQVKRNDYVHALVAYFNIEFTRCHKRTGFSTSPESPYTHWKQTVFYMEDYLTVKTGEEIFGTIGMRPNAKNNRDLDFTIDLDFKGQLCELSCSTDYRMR
T1 sequence (Q96LA8 with tags, fused parts or gaps): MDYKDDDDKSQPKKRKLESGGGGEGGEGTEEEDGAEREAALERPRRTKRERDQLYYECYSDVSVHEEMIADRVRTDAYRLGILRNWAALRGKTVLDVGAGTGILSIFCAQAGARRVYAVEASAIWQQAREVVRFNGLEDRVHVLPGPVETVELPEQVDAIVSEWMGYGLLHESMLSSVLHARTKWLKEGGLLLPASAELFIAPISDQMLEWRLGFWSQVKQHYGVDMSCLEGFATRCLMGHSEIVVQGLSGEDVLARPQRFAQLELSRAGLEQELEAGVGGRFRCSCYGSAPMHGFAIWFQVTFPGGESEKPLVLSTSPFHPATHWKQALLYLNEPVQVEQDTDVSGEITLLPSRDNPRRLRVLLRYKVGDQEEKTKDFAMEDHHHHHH

Row | Compound | IC50 (human PRMT6; [1]) [nM] | IC50 (human PRMT1) [nM] | IC50 (human PRMT6; [2]) [nM]
1 | CNCCN(C)Cc1c[nH]nc1-c1cc(Cl)c(OC(C)C)c(Cl)c1 [Compound 265, N^1-((3-(3,5-dichloro-4-isopropoxyphenyl)-1H-pyrazol-4-yl)methyl)-N^1,N^2-dimethylethane-1,2-diamine] | 15.7 | 5.67 | 
2 | CNCCN(C)Cc1cn(Cc2ccccn2)nc1-c1ccc(OC(C)C)cc1 [Compound 247] | 805 | 147 | 
3 | CNCCN(C)Cc1cn(CCOC)nc1-c1ccc(OC(C)C)cc1 [Compound 253, N1-((3-(4-isopropoxyphenyl)-1-(2-methoxyethyl)-1H-pyrazol-4-yl)methyl)-N1,N2-dimethylethane-1,2-diamine hydrochloride] | 748 | 113 | 
4 | CCN(CCN)Cc1c[nH]nc1-c1ccc(F)cc1 [Compound 62] | 7.87 | 13.9 | 
5 | CC(C)Cc1cccc(-c2n[nH]cc2CN(C)CCN)c1 [Compound 235] | 176 | 8.35 | 
6 | CNCCN(C)Cc1c[nH]nc1-c1cc(C(C)C)cc(C(C)C)c1 [Compound 229, N^1-((3-(3,5-diisopropylphenyl)-1H-pyrazol-4-yl)methyl)-N^1,N^2-dimethylethane-1,2-diamine] | 201 | 59.7 | 
7 | CNCCN(C)Cc1c(-c2ccc(OCCCOC)cc2)cnn1C [Compound 276] | > 1000 | > 1000 | 
8 | CN(CCN)Cc1c[nH]nc1-c1ccc(C#N)cc1 [Compound 68] | 6.7 | 6.04 | 
9 | CNCCN(C)Cc1n[nH]cc1-c1ccc(Oc2cccc(C#N)c2)cc1 [Compound 267] | 1.56 | 3.47 | 
10 | CN(CCN)Cc1cnn(CCO)c1-c1ccc(F)cc1 [Compound 65] | 423 | 1940 | 
11 | CNCCN(C)Cc1c[nH]nc1-c1ccc(OCCCO)cc1 [Compound 236] | 14.7 | 9.17 | 
12 | CCCc1ccc(-c2n[nH]cc2CN(C)CCNC)cc1 [Compound 20] | 7.79 | 4.12 | 
13 | CNCCN(C)Cc1n[nH]cc1-c1ccc(Oc2ccccc2F)cc1 [Compound 279, N^1-((4-(4-(2-fluorophenoxy)phenyl)-1H-pyrazol-3-yl)methyl)-N^1,N^2-dimethylethane-1,2-diamine] | 1.87 | 3.46 | 
14 | CNCCN(C)Cc1c[nH]nc1-c1cccc(C#N)c1 [Compound 22] | 11.9 | 166 | 
15 | CNCCN(C)Cc1n[nH]cc1-c1cc(Cl)c(OC(C)C)c(Cl)c1 [Compound 273] | 31.6 | 8.56 | 
16 | CNCCN(C)Cc1c[nH]nc1-c1cccc(OC)c1 [Compound 24] | 26.2 | 85.6 | 
17 | CNCCN(C)Cc1n[nH]cc1-c1cc(C(C)C)cc(C(C)C)c1 [Compound 242] | > 1000 | 376 | 
18 | CNCCN(C)Cc1n[nH]cc1-c1cc(CC(C)C)cc(CC(C)C)c1 [Compound 271] | 864 | 52.4 | 
19 | CNCCN(C)Cc1c[nH]nc1-c1ccc(OC)cc1OC [Compound 55] |  | 190 | 87

Row | Compound | IC50 (human PRMT6; [1]) [nM] | IC50 (human PRMT1) [nM] | IC50 (human PRMT6; [2]) [nM]
20 | C=CC(=O)Nc1cccc(-c2[nH]ncc2CN(C)CCNC)c1 [Compound 258] | 173 | 43.9 | 
21 | CNCCN(C)Cc1c[nH]nc1-c1ccc(Oc2cccc(F)c2)cc1 [Compound 231] | 2.97 | 4.08 | 
22 | CNCCN(C)Cc1n[nH]c(C)c1-c1ccc(OC(C)C)cc1 [Compound 275] | 20.9 | 8.63 | 
23 | CNCCN(C)Cc1c[nH]nc1-c1cccc([N+](=O)[O-])c1 [Compound 21] | 12.2 | 57.9 | 
24 | CNCCN(C)Cc1c[nH]nc1-c1ccc(F)cc1F [Compound 49] | 39.3 | 165 | 
25 | CNCCN(C)Cc1cn(Cc2cccnc2)nc1-c1ccc(OC(C)C)cc1 [Compound 246] | 318 | 61.5 | 
26 | CNCCN(C)Cc1c[nH]nc1-c1ccccc1-c1ccccc1 [Compound 46] |  | 2500 | 3220
27 | CNCCN(C)Cc1c[nH]nc1-c1ccc(N)cc1 [Compound 33] | 37.9 | 153 | 
28 | CNCCN(C)Cc1c[nH]nc1-c1ccc(Oc2ccccc2)cc1 [Compound 37] | 3.29 | 2.74 | 
29 | CNCCN(C)Cc1cn(C2CCC2)nc1-c1ccc(OC(C)C)cc1 [Compound 254, N1-((1-cyclobutyl-3-(4-isopropoxyphenyl)-1H-pyrazol-4-yl)methyl)-N1,N2-dimethylethane-1,2-diamine hydrochloride] | 201 | 29.3 | 
30 | CN(CCN)Cc1c[nH]nc1-c1ccc(Oc2ccccc2F)cc1 [Compound 259] | 0.8 | 1.32 | 
31 | CNCCN(C)Cc1c[nH]nc1-c1ccc(Oc2ccccc2C(=O)NC)cc1 [Compound 274] | 7.57 | 19.3 | 
32 | C=C(C)C(=O)Nc1cccc(-c2[nH]ncc2CN(C)CCNC)c1 [Compound 257] | 213 | 135 | 
33 | CNCCN(C)Cc1n[nH]cc1-c1ccc(Oc2ccccc2)c(C(=O)N(C)C)c1 [Compound 241] | 34.1 | 52.2 | 
34 | CNCCN(C)Cc1c[nH]nc1-c1cccc(O)c1 [Compound 26] | 22.5 | 197 | 
35 | CNCCN(C)Cc1cnn(CC(=O)OC)c1-c1ccc(OC(C)C)cc1 [Compound 249] | 428 | 109 | 
36 | CNCCN(C)Cc1c[nH]nc1-c1ccc(C)cc1C [Compound 29] | 61.7 | 178 | 
37 | CNCCN(C)Cc1c[nH]nc1-c1ccc(Oc2ccccc2F)cc1 [Compound 237] | 2.13 | 2.06 | 
38 | CNCCN(C)Cc1n[nH]cc1-c1ccc(Oc2cccc(OC)c2)cc1 [Compound 239] | 1.01 | 2.51 | 

Row | Compound | IC50 (human PRMT6; [1]) [nM] | IC50 (human PRMT1) [nM] | IC50 (human PRMT6; [2]) [nM]
39 | CNCCN(C)Cc1cn(Cc2ccncc2)nc1-c1ccc(OC(C)C)cc1 [Compound 245] | 224 | 35.3 | 
40 | CNCCN(C)Cc1c[nH]nc1-c1ccc2ccccc2c1 [Compound 58] | 6.14 | 5.73 | 
41 | CNCCN(C)Cc1cnn(C2CCCC2)c1-c1ccc(OC(C)C)cc1 [Compound 255] | 75.1 | 16.8 | 
42 | CCCN(CCN)Cc1c[nH]nc1-c1ccc(F)cc1 [Compound 63] | 1150 | 1540 | 
43 | CNCCN(C)Cc1c[nH]nc1-c1ccc(Oc2cccc(C(C)C)c2)cc1 [Compound 262] | 1.46 | 5.63 | 
44 | CNCCN(C)Cc1c[nH]nc1-c1ccccc1OC [Compound 23] | 183 | 194 | 
45 | CNCCN(C)Cc1c[nH]nc1-c1c(OC)cccc1OC [Compound 56] |  | 5850 | 1900
46 | CCNC(=O)c1cccc(-c2n[nH]cc2CN(C)CCNC)c1 [Compound 43] | 51.9 | 338 | 
47 | CNCCN(C)Cc1c[nH]nc1-c1ccc(Oc2cccc(C#N)c2)cc1 [Compound 261] | 2.44 | 2.94 | 
48 | CNCCN(C)Cc1n[nH]cc1-c1ccc(Oc2cccc(C(C)C)c2)cc1 [Compound 277] | 1.66 | 20.2 | 
49 | CN(CCN)Cc1cn(CCO)nc1-c1ccc(F)cc1 [Compound 66] | 1040 | 2410 | 
50 | CNCCN(C)Cc1nn(C)cc1-c1ccc(OCCCOC)cc1 [Compound 266] | 33 | 176 | 
51 | CNCCN(C)Cc1c[nH]nc1-c1ccc(F)c(F)c1 [Compound 51] | 9.95 | 12.9 | 
52 | CNCCN(C)Cc1cnn(CCCC(O)CO)c1-c1ccc(F)cc1 (stereo not shown) [Compound 31] | 110 | 779 | 
53 | CNCCN(C)Cc1c[nH]nc1-c1ccc(OC)cc1 [Compound 25] | 10.9 | 20.9 | 
54 | CC(C)Cc1cc(-c2n[nH]cc2CN(C)CCN)ccc1F [Compound 280] | 10.2 | 4.3 | 
55 | CNCCN(C)Cc1c[nH]nc1-c1cc(F)ccc1F [Compound 50] | 42.8 | 149 | 
56 | CNCCN(C)Cc1cn(CC(=O)O)nc1-c1ccc(OC(C)C)cc1 [Compound 250] | 4260 | 737 | 
